Here are results for 9 compounds from US11352624B2, “Reducing nonsense-mediated MRNA decay” (Cold Spring Harbor Laboratory, priority 2013, dated 2022).

In data set [1] the test system is mammalian cells carrying PTCs related to Usher syndrome, Rett syndrome, cystic fibrosis, and mucopolysaccharidosis I-Hurler (MPS I-H). Particulars: cited from earlier work.
The subject of data set [2] is PTC-containing CFTR transcript (W1282X). Briefly: Radioactive RT-PCR of cells expressing CFTR minigene carrying W1282X, transfected with ASOs. It counts as cell-based, human. To be noted: for relative potency among ASOs of each CFTR exon-exon junction (screening): boundaries 24/25, 25/26, 26/27, 19 ASOs each. The method, then:
ASO microwalks are performed as previously described (7), altogether targeting a region that spans 33 nt from −6 to −38 of the 3′ end of exons that are EJC-bound (FIG. 2). Briefly, cell lines expressing minigenes carrying mutations in the last EJC-bound exon or their wild-type versions and GFP (by transfection using lipofectamine or induction with tetracycline) are co-transfected with each of the 15-mer ASOs, independently. In total, 19 ASOs that are consecutively shifted by 1 nt are tested for each EJC-bound exon-exon junction downstream of the mutations (FIG. 2). This methodology was followed in designing the sequences for the ASOs to target PTC-containing (e.g., disease-causing nonsense mutation) HBB alleles (See SEQ ID NOs 1-19), MECP2 alleles (See SEQ ID NOs 20-38), CFTR alleles (See SEQ ID NOs 39-114), DMD alleles (See SEQ ID NOs 115-190), and IDUA alleles (See SEQ ID Nos 191-268). Different concentrations of ASOs are tested to obtain a dose-response curve. In the case of genes containing more than one exon-exon junction downstream of a PTC, minigene intermediates are constructed to screen for NMD-inhibiting ASOs one junction at a time and in combination with the best targeting ASO that resulted from the screening of the upstream junction. Abrogation of NMD is assessed by RT-PCR, and the percentage of mutant transcript is calculated as described above. Because some of the ASOs might interfere with splicing-factor binding sites, it is important to determine whether the splicing of the targeted exons is adversely affected. Only the ASOs that abrogate NMD without negative effects on splicing are pursued.
Moreover, minigenes consisting of CFTR exons 22-25, 22-26 and 22-27 carrying the W1282X mutation in exon 23 as well as its restive wild-type version were generated. As described above, 19 15-mer ASOs were obtained that target a region spanning nucleotides −38 to −6 of the exons 24/25 boundary and transfected to CFTR minigene expressing cells. Once this screening identified the best NMD inhibiting ASO, it is then transfected in combination with each the 19 15-mer ASOs that target a region spanning nucleotides −38 to −6 of the exons 25/26 boundary. The resulting best combination of ASOs (from each exon-exon boundary) was then transfected in combination with each of the 19 15-mer ASOs that target a region spanning nucleotides −38 to −6 of the exons 26/27 boundary. The levels of spliced CFTR mRNA were then measured after induced expression using radioactive RT-PCR.

In data set [3] the test system is PTC-containing HBB transcript (T39). Briefly: Radioactive RT-PCR of HeLa cells co-transfected with HBB reporters and ASOs. The class given is cell-based, human. To be noted: for mRNA levels of PTC-containing HBB transcript (T39): HeLa cells, ASO 50 nM co-transfected with HBB Q39X gene, compared with control-ASO, percentages normalized to WT. An excerpt: (§1) In some examples, it is desirable to start with mutations located in the last presumptive EJC-bound exon, as targeting only one junction at a time will simplify the interpretation of results. Once the effectiveness of preventing EJC deposition by ASOs is confirmed, two or more junctions are targeted. In some examples, three mutations for each gene are selected, and only mutations that lead to a transcript level <50% of the wild-type transcript will be targeted by the ASO microwalk (discussed below). […] Briefly, minigenes carrying the selected mutations and their wild-type versions are co-transfected with a GFP-expressing vector into HeLa cells. Forty-eight hours later, RNA is extracted and radioactive RT-PCR is performed. Products corresponding to the wild-type and mutant minigenes are normalized to GFP expression, and the percentage of the mutant over the wild-type transcript is calculated. In the case of integrated minigenes into U2OS cells, wild-type and mutant minigene products are normalized to endogenous housekeeping genes, e.g. GAPDH.
ASO microwalks are performed as previously described (7), altogether targeting a region that spans 33 nt from −6 to −38 of the 3′ end of exons that are EJC-bound (FIG. 2). Briefly, cell lines expressing minigenes carrying mutations in the last EJC-bound exon or their wild-type versions and GFP (by transfection using lipofectamine or induction with tetracycline) are co-transfected with each of the 15-mer ASOs, independently. […] Abrogation of NMD is assessed by RT-PCR, and the percentage of mutant transcript is calculated as described above. […]
A set of 19 overlapping 2′-O-methoxyethyl phosphorothioate (MOE-P=S) ASO 15mers targeting the canonical EJC region in exon 2 of HBB were synthesized. […] The levels of spliced HBB mRNA were then measured after transient or induced expression using radioactive RT-PCR. […] Truncated protein levels resulting from the ASO treatment were assessed by western blot analysis using anti-GFP antibody.

Another data set relates to MECP2 S65X transcript. Briefly: MECP2 S65X minigene reporter, mRNA level after ASO transfection. To be noted: microwalk of 19 ASOs. It counts as cell-based, human.
Excerpt: as §1
ASO microwalks are performed as previously described (7), altogether targeting a region that spans 33 nt from −6 to −38 of the 3′ end of exons that are EJC-bound (FIG. 2). […] Abrogation of NMD is assessed by RT-PCR, and the percentage of mutant transcript is calculated as described above. […]

For the compound `NC[C@H]1O[C@@H](OC2C(O)[C@H](N)CC(N)[C@H]2O[C@H]2OC(CO)[C@@H](O)C(O)C2N)C(O)C1O` (some centres unmarked) [NB30], the “restoration of functional protein” value in data set [1] is “restore a significant amount of functional protein”.

`NCC[C@H](O)C(=O)N[C@@H]1CC(N)[C@@H](O[C@H]2OC(CO)[C@@H](O)[C@H](O)C2N)[C@H](O[C@@H]2O[C@H](CN)[C@H](O)C2O)C1O` (some centres unmarked) [NB54]: the “restoration of functional protein” value in data set [1] is recorded as “restore a significant amount of functional protein”.

Turning to `C[C@@H](O)C1O[C@H](O[C@@H]2C(N)C[C@@H](NC(=O)[C@@H](O)CCN)[C@@H](O)C2O[C@@H]2O[C@H](CN)[C@H](O)C2O)[C@@H](N)C(O)[C@@H]1O` (some centres unmarked) [NB84], the “restoration of functional protein” value in data set [1] was “restore a significant amount of functional protein”.

“ACTGGGTTCATCAAG (listed as DNA, chemistry not given here) [SEQ ID NO: 83, ASO targeting CFTR exon 25]”: the “relative potency among ASOs of each CFTR exon-exon junction (screening)” value (shortened to “relative potency among ASOs … (screening)”) in data set [2] was “most potent ASOs targeting each exon-exon junction”.

“CATATTTCTTGATCA (listed as DNA, chemistry not given here) [SEQ ID NO: 65, ASO targeting CFTR exon 24]”: the “relative potency among ASOs … (screening)” value in data set [2] is reported as “most potent ASOs targeting each exon-exon junction”.

For the compound “CTCAGGATCCACGTG (2'-MOE phosphorothioate, further chemistry not given here) [SEQ ID NO: 15, 2′-O-methoxyethyl phosphorothioate (MOE-P=S) 15mer]”, the “mRNA levels of PTC-containing HBB transcript (T39)” value in data set [3] was “increase in mRNA levels”. In addition, the “relative potency among ASOs targeting HBB exon 2” value in data set [3] (microwalk of 19 ASOs, -38 to -6 from the exon 2/exon 3 junction) was “most potent ASO targeting HBB exon 2”.

Regarding “GCATTCCAGCATTGC (listed as DNA, chemistry not given here) [SEQ ID NO: 107, ASO targeting CFTR exon 26]”, the “mRNA level of CFTR W1282X transcript, ASOs tested independently (relative potency)” value in data set [2] (CFTR 22-17 minigene, one ASO per exon-exon junction downstream of W1282X) is recorded as “most potent ASO”. In addition, the “relative potency among ASOs … (screening)” value in data set [2] is on record as “most potent ASOs targeting each exon-exon junction”.

Take “TACTTCCCAGCAGAG (listed as DNA, chemistry not given here) [SEQ ID NO: 25]”: the “relative potency among ASOs targeting MECP2 exon 3” value in the data set with MECP2 S65X transcript is “most potent ASO targeting MECP2 exon 3”.

Turning to “TCTCAGGATCCACGT (all 2'-MOE, all phosphorothioate, methylation of C not given here) [SEQ ID NO: 16, ASO targeting HBB exon 2; 2′-O-methoxyethyl phosphorothioate (MOE-P=S) 15mer]”, the “mRNA levels of PTC-containing HBB transcript (T39)” value in data set [3] was “increase in mRNA levels”.
